Laboratory results as given in patent US12577248B2, “Substituted [1,2,4]triazolo[1,5-a]pyrazines as spleen tyrosine kinase inhibitors” (NANJING RUIJIE PHARMA CO., LTD., priority 2020, dated 2026).
Like-named read-outs stand apart in the source and are kept apart here.

Experiments:
SYK kinase = SYK kinase (Homo sapiens, UniProt P43405); experiment: SYK kinase assay (HTRF KinEASE-TK); assay type: biochemical; settings: read-out: Syk inhibition IC50
Procedure: A homogeneous time-resolved fluorescence (HTRF) assay was performed to assess the potential inhibitory effect of compounds on SYK kinase. The HTRF KinEASE-TK kit (Cisbio) was used. During the step, kinase will phosphorylate the substrate, and the resulting fluorescence signal is proportional to the phosphorylation level. The assay was performed in the following steps: First, the testing compounds were diluted 1:3 in succession in DMSO. The 1× kinase buffer contained 1 volume of 5× enzymatic buffer with 4 volumes of distilled water, 5 mM MgCl2, 1 mM MnCl2, and 1 mM DTT. The assays were assembled in 384 well plates (784075, Greiner) where 10 nl of compound solutions were added into each well, and the plates were centrifuged at 1000 g for 1 min. Then, 5 μl of 2×SYK in 1× kinase buffer were added to each well. The plates were centrifuged at 1000 g for 30 s and then incubated at room temperature for 10 min. The reaction was initiated by adding […] of premixed 2×TK-substrate-biotin and ATP mixture in 1× kinase buffer to the assay plates. The plates were centrifuged at 1000 g for 30 s and incubated at room temperature for 30 min. Phosphorylation was detected by adding 5 μl of 4×Sa-XL 665 in HTRF detection buffer into each well of the assay plates. The plates were centrifuged plates at 1000 g for 30 sec, and then incubated at room temperature for 1 h. Finally, the plates were read on an Envision 2104 plate reader (PerkinElmer) and the fluorescence signal was measured at 615 nm (Cryptate) and 665 nm (XL665).
A ratio (665/615 nm) was calculated for each well. The inhibition ratio was calculated as follow: […]
IC50 was calculated by fitting % Inhibition values and log of compound concentrations to nonlinear regression (dose response−variable slope) with GraphPad 6.0.

Ba/F3-TEL-SYK cells = molecular target: T1, Ba/F3-TEL-SYK cells (Homo sapiens, UniProt P43405); experiment: Ba/F3-TEL-SYK cell-based assay (CellTiter-Glo proliferation); settings: 72 hr, read-out: BaF3 Cell assay IC50
T1 construct: fused on or other part: N-terminal part of TEL (ETV6) with its oligomerising PNT/SAM domain, fused before the SYK part that carries the kinase domain; P41212 (Transcription factor ETV6)
Procedure: CellTiter-Glo® Luminescent Cell Viability Assay was used to determine the number of viable cells in culture based on quantitation of the ATP present, as an indicator of metabolically active cells. The assay was performed in the following steps: First, the testing compounds were dissolved in DMSO to make a stock solution. The stocks (10 mM) were then diluted to varying concentrations: […], 0.305 and 0.102 μM. An aliquot of 0.2 μl of diluted compounds were added to the 384 well assay plate. Second, added 40 μl of cell suspension with 800 Ba/F3-TEL-SYK cells into each well and incubated the plate at 37° C., 5% CO2 for 72 hr. Then, added 20 μl Cell Titer-Glo Reagent into each well of the cell culture plate. Mixed the contents for 2 min on an orbital shaker to lyse cells, and rest the plate at room temperature for 30 min. Finally, luminescence values were obtained using an Envision 2104 plate reader (PerkinElmer) and calculated the average data and Standard Deviation (SD) of DMSO and Reference (GS-9973, 1 μM) as high control and low control. To determine the IC50 value, fit the data using non-linear regression equation.

Compound	IC50 (SYK kinase; class symbols)	GI50 (Ba/F3-TEL-SYK cells)	IC50 (SYK kinase; given as number)
COc1cc(Nc2nc(-c3ccc4cn[nH]c4c3)cn3ncnc23)ccc1N1CCN(C(C)C)CC1 [I17, 6-(1H-indazol-6-yl)-N-(4-(4-isopropylpiperazin-1-yl)-3-methoxyphenyl)-[1,2,4]triazolo[1,5-a]pyrazin-8-amine]	≤ 50 nM	50 to 500 nM	
c1nc2c(Nc3ccc(N4CC5(COC5)C4)cc3)nc(-c3ccc4cc[nH]c4c3)cn2n1 [I61, N-(4-(2-oxa-6-azaspiro[3.3]heptan-6-yl)phenyl)-6-(1H-indol-6-yl)-[1,2,4]triazolo[1,5-a]pyrazin-8-amine]	≤ 50 nM	50 to 500 nM	
COc1cc(Nc2nc(-c3ccc4cn[nH]c4c3)cn3ncnc23)ccc1N1CC2(COC2)C1 [I60, 6-(1H-indazol-6-yl)-N-(3-methoxy-4-(2-oxa-6-azaspiro[3.3]heptan-6-yl)phenyl)-[1,2,4]triazolo[1,5-a]pyrazin-8-amine]	50 to 500 nM	50 to 500 nM	
CC1(O)CCN(c2ccc(Nc3nc(-c4ccc5cn[nH]c5c4)cn4ncnc34)cc2)CC1 [I23, 1-(4-((6-(1H-indazol-6-yl)-[1,2,4]triazolo[1,5-a]pyrazin-8-yl)amino)phenyl)-4-methylpiperidin-4-ol]	≤ 50 nM	50 to 500 nM	
CCOc1cc(Nc2nc(-c3ccc4cn[nH]c4c3)cn3ncnc23)ccc1N1CCOCC1 [I73, N-(3-ethoxy-4-morpholinophenyl)-6-(1H-indazol-6-yl)-[1,2,4]triazolo[1,5-a]pyrazin-8-amine]	≤ 50 nM	50 to 500 nM	
CCN1CCN(c2ccc(Nc3nc(-c4ccc5cn[nH]c5c4)cn4ncnc34)cc2OC)CC1 [I16, N-(4-(4-ethylpiperazin-1-yl)-3-methoxyphenyl)-6-(1H-indazol-6-yl)-[1,2,4]triazolo[1,5-a]pyrazin-8-amine]	≤ 50 nM	≤ 50 nM	
Nc1cncc(-c2cn3ncnc3c(Nc3ccc(N4CCN(C5COC5)CC4)cc3)n2)n1 [I55, 6-(6-aminopyrazin-2-yl)-N-(4-(4-(oxetan-3-yl)piperazin-1-yl)phenyl)-[1,2,4]triazolo[1,5-a]pyrazin-8-amine]	≤ 50 nM	500 to 5000 nM	
FC(F)(F)Oc1cc(Nc2nc(-c3ccc4cc[nH]c4c3)cn3ncnc23)ccc1N1CC2CC1CN2C1COC1 (stereo not drawn) [I77, 6-(1H-indol-6-yl)-N-(4-(5-(oxetan-3-yl)-2,5-diazabicyclo[2.2.1]heptan-2-yl)-3-(trifluoromethoxy)phenyl)-[1,2,4]triazolo[1,5-a]pyrazin-8-amine]	50 to 500 nM	> 5000 nM	
O=C(O)c1ccc(NC(=O)c2cccc(-c3cn4ncnc4c(Nc4ccc(N5CCOCC5)cc4)n3)c2)cc1 [I7, 4-(3-(8-((4-morpholinophenyl)amino)-[1,2,4]triazolo[1,5-a]pyrazin-6-yl)benzamido)benzoic acid]	≤ 50 nM	> 5000 nM	
CC(C)N1C[C@@H]2C[C@@H]1CN2c1ccc(Nc2nc(-c3ccc4[nH]ccc4c3)cn3ncnc23)cc1 [I70, 6-(1H-indol-5-yl)-N-(4-((1S,4R)-5-isopropyl-2,5-diazabicyclo[2.2.1]heptan-2-yl)phenyl)-[1,2,4]triazolo[1,5-a]pyrazin-8-amine]	50 to 500 nM	500 to 5000 nM	
CC(C)Oc1cc(Nc2nc(-c3ccc4cc[nH]c4c3)cn3ncnc23)ccc1N1CC2CC1CN2C1COC1 (stereo not drawn) [I81, 6-(1H-indol-6-yl)-N-(3-isopropoxy-4-(5-(oxetan-3-yl)-2,5-diazabicyclo[2.2.1]heptan-2-yl)phenyl)-[1,2,4]triazolo[1,5-a]pyrazin-8-amine]	50 to 500 nM	500 to 5000 nM	
CC(C)Oc1cc(Nc2nc(-c3ccc4cn[nH]c4c3)cn3ncnc23)ccc1N1CCOCC1 [I75, 6-(1H-indazol-6-yl)-N-(3-isopropoxy-4-morpholinophenyl)-[1,2,4]triazolo[1,5-a]pyrazin-8-amine]	50 to 500 nM	500 to 5000 nM	
COc1cc(Nc2nc(-c3ccc4cn[nH]c4c3)cn3ncnc23)ccc1N1CCS(=O)(=O)CC1 [I24, 4-(4-((6-(1H-indazol-6-yl)-[1,2,4]triazolo[1,5-a]pyrazin-8-yl)amino)-2-methoxyphenyl)thiomorpholine 1,1-dioxide]	≤ 50 nM	≤ 50 nM	
CC(C)N1C[C@@H]2C[C@@H]1CN2c1ccc(Nc2nc(-c3ccc4[nH]ncc4c3)cn3ncnc23)cc1 [I69, 6-(1H-indazol-5-yl)-N-(4-((1S,4R)-5-isopropyl-2,5-diazabicyclo[2.2.1]heptan-2-yl)phenyl)-[1,2,4]triazolo[1,5-a]pyrazin-8-amine]	50 to 500 nM	500 to 5000 nM	
COc1cc(Nc2nc(-c3ccc4cn[nH]c4c3)cn3ncnc23)ccc1N1CCN(C)CC1 [I12, 6-(1H-indazol-6-yl)-N-(3-methoxy-4-(4-methylpiperazin-1-yl)phenyl)-[1,2,4]triazolo[1,5-a]pyrazin-8-amine]	≤ 50 nM	≤ 50 nM	
c1nc2c(Nc3ccc(N4CC5(COC5)C4)cc3)nc(-c3ccc4cn[nH]c4c3)cn2n1 [I59, N-(4-(2-oxa-6-azaspiro[3.3]heptan-6-yl)phenyl)-6-(1H-indazol-6-yl)-[1,2,4]triazolo[1,5-a]pyrazin-8-amine]	50 to 500 nM	50 to 500 nM	
O=C1COc2cc(-c3cn4ncnc4c(Nc4ccc(N5CCOCC5)cc4)n3)ccc2N1 [I29, 7-(8-((4-morpholinophenyl)amino)-[1,2,4]triazolo[1,5-a]pyrazin-6-yl)-2H-benzo[b][1,4]oxazin-3(4H)-one]	≤ 50 nM	50 to 500 nM	
COc1ccc(Nc2nc(-c3ccc4cn[nH]c4c3)cn3ncnc23)cc1OC [I3, N-(3,4-dimethoxyphenyl)-6-(1H-indazol-6-yl)-[1,2,4]triazolo[1,5-a]pyrazin-8-amine]	≤ 50 nM	≤ 50 nM	
FC(F)Oc1cc(Nc2nc(-c3ccc4cn[nH]c4c3)cn3ncnc23)ccc1N1CCOCC1 [I21, N-(3-(difluoromethoxy)-4-morpholinophenyl)-6-(1H-indazol-6-yl)-[1,2,4]triazolo[1,5-a]pyrazin-8-amine]	≤ 50 nM	50 to 500 nM	
Fc1cc(Nc2nc(-c3ccc4cn[nH]c4c3)cn3cnnc23)ccc1N1CCOCC1 [I40, N-(3-fluoro-4-morpholinophenyl)-6-(1H-indazol-6-yl)-[1,2,4]triazolo[4,3-a]pyrazin-8-amine]	> 5000 nM		
FC(F)(F)Oc1cc(Nc2nc(-c3ccc4cn[nH]c4c3)cn3ncnc23)ccc1N1CCOCC1 [I20, 6-(1H-indazol-6-yl)-N-(4-morpholino-3-(trifluoromethoxy)phenyl)-[1,2,4]triazolo[1,5-a]pyrazin-8-amine]	50 to 500 nM		
CCS(=O)(=O)N1CCN(c2ccc(Nc3nc(-c4ccc5cn[nH]c5c4)cn4ncnc34)cc2OC)CC1 [I13, N-(4-(4-(ethylsulfonyl)piperazin-1-yl)-3-methoxyphenyl)-6-(1H-indazol-6-yl)-[1,2,4]triazolo[1,5-a]pyrazin-8-amine]	≤ 50 nM		
COc1cc(Nc2nc(-c3cnc4c(c3)OCC(=O)N4)cn3ncnc23)cc(OC)c1OC [I34, 7-(8-((3,4,5-trimethoxyphenyl)amino)-[1,2,4]triazolo[1,5-a]pyrazin-6-yl)-2H-pyrido[3,2-b][1,4]oxazin-3(4H)-one]	> 5000 nM		
COc1cc(Nc2nc(-c3ccc4cn[nH]c4c3)cn3ncnc23)ccc1N1CCN(CCO)CC1 [I15, 2-(4-(4-((6-(1H-indazol-6-yl)-[1,2,4]triazolo[1,5-a]pyrazin-8-yl)amino)-2-methoxyphenyl)piperazin-1-yl)ethan-1-ol]	≤ 50 nM		
COc1cc(Nc2nc(-c3ccc4[nH]ccc4c3)cn3cnnc23)ccc1N1CCOCC1 [I68, 6-(1H-indol-5-yl)-N-(3-methoxy-4-morpholinophenyl)-[1,2,4]triazolo[4,3-a]pyrazin-8-amine]	> 5000 nM		
c1cc(N2CCOCC2)ccc1Nc1nc(-c2ccc3cn[nH]c3c2)cn2cnnc12 [I48, 6-(1H-indazol-6-yl)-N-(4-morpholinophenyl)-[1,2,4]triazolo[4,3-a]pyrazin-8-amine]			> 10000 nM
